From publication PMC11046913, “Activation of retinoic acid-related orphan receptor γ(t) by parabens and benzophenone UV-filters” (Toxicology, 2022)
Like-named read-outs stand apart in the source and are kept apart here.

Columns and labels:
[1] = biological target: T1, RORγ (Mus musculus, UniProt P51450); assay: cell-based; assay type: cell-based; conditions: for RORγ agonistic activity (in words): screening at 10 μM; for activation at 1 µM: read-out: % increase in RORγ activity (mean ± SD), individual agonist at 1 μM; for fold induction at 10 µM: read-out: RORγ-dependent transactivation compared to the DMSO vehicle control; for activation at 2.5 µM: read-out: % increase in RORγ activity (mean ± SD), individual agonist at 2.5 μM
T1 sequence (P51450 1-516): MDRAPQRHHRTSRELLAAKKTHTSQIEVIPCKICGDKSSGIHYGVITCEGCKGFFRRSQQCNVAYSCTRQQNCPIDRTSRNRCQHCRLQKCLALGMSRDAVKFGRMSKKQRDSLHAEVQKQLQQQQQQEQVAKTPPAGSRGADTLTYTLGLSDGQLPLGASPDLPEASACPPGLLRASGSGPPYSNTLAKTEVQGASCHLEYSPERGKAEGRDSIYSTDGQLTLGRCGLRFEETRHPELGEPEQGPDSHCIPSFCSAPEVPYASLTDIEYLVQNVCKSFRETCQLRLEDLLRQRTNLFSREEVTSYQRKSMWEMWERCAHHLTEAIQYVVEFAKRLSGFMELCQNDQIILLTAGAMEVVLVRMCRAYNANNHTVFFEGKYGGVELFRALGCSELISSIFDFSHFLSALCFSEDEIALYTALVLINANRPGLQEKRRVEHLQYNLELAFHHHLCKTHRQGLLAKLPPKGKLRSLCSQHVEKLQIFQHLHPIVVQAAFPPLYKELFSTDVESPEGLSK
Protocol: Both cell lines were cultured under standard conditions (37 °C, 5% CO2).

[2] = test system: estrogenic activity; conditions: cited from earlier work
[3] = biological target: T1, RORγ; conditions: in presence of 1.25 μM SR2211, test compound at different concentrations
Protocol: The CHO RORγ Tet-on cell line used in this study is a well-established reporter gene system to assess RORγ agonists and antagonists. […] CHO RORγ Tet-on cells were seeded in 96-well plates at a density of 2000 cells/100 μL culture medium, followed by incubation overnight. Subsequently, the medium was renewed, and the respective test compound dissolved in dimethylsulfoxide (DMSO) was added to the wells using a HP D300 Digital Liquid Dispenser with T8 dispense heads (HP Inc., Palo Alto, CA, USA). […] Two hours later, RORγ expression was induced by adding doxycycline at 1 μM final concentration. All samples were adjusted to contain the same volume and concentration of DMSO. After 16 h of incubation, cells were washed with PBS, lysed with 20 μL Tropix lysis solution (Applied Biosystems, Foster City, CA, USA) containing 1 mM dithiothreitol and frozen at − 80 °C for at least 20 min. […] Measured values were normalized to values from control cells treated with DMSO vehicle control only and induced with doxycycline.
Cells were simultaneously exposed to SR2211 and a given test compound at different concentrations or vehicle control.

[4] = test system: IL-17A mRNA in EL4 T-cells over expressing human RORγt; assay: IL-17A mRNA expression (qRT-PCR) in EL4 cells overexpressing human RORγt; assay type: cell-based, murine; conditions: 5 h, PMA/ionomycin-stimulated
Protocol: (§1) EL4 cells were transfected with plasmid encoding the human variant of RORγt by electroporation and seeded into 12-well plates (500,000 cells and 1.6 μg plasmid in 2 mL cultivation medium per well). Transfection was performed using the NeonTM transfection system (Invitrogen, Carlsbad, CA, USA) as follows: 1.8 × 10^6 cells and 6 μg plasmid in 100 μL buffer R were exposed to one pulse (1080 V, 50 ms) utilizing a 100 μL gold tip. After incubation for 16 h, the cells were treated for 5 h with the indicated test compounds as well as PMA and ionomycin at a total concentration of 0.253 nM and 31.3 nM, respectively. Subsequently, cells were centrifuged at 200 g for 3 min and total RNA was isolated from the pellet with the RNeasy Mini Kit according to the manufacturer’s protocol (Qiagen, Venlo, Netherlands). Contamination with genomic DNA was prevented by on-column DNA digestion using DNase I (RNase-free, Qiagen). RNA (1 μg) was reverse transcribed to complementary DNA (cDNA) utilizing the Takara PrimeScript RT Reagent Kit, according to the manufacturer’s protocol (Takara Bio Inc., Kusatsu, Japan). Finally, quantitative polymerase chain reaction (qPCR) was performed using Kapa SYBER® Fast qPCR Master Mix (KAPA Biosystems, Wilmington, MA, USA) as described earlier ([Inderbinen et al., 2020]). The following primers were used: peptidylprolyl isomerase A (PPIA): forward 5’-[…]-3’, reverse 5’-[…]-3’; IL-17A: forward 5’-[…] CCAA-3’, reverse 5’-[…]-3’; IL-22: forward 5’-[…]-3’, reverse 5’-[…]-3’. Primer quality was verified by analysis of melting curves and inspection of the PCR product on an agarose gel (single band at the expected size of the amplified sequence). Resulting CT values were normalized to values of the endogenous control gene PPIA and compared to control according to the 2^−ΔΔCT method ([Schmittgen and Livak, 2008]).

[5] = test system: IL-22 mRNA in EL4 T-cells over expressing human RORγt; assay: IL-22 mRNA expression (qRT-PCR) in EL4 cells overexpressing human RORγt; assay type: cell-based, murine; conditions: 5 h, PMA/ionomycin-stimulated
Protocol: as §1

[6] = parameters: method as in CIR, 2008; conditions: relatively long alkyl side chain; ref CIR, 2008; cited from earlier work
[7] = cited from earlier work
[8] = parameters: method as in Benson et al., 2005; Fernandez et al., 2002; conditions: human; ref Benson et al., 2005; Fernandez et al., 2002; cited from earlier work
[9] = only at high micromolar concentrations, ref Charles and Darbre, 2009

Row | SMILES | RORγ agonistic activity (in words) [1] | activation at 1 µM [1] | Reversal of the SR2211-mediated inhibition of RORγ transactivation [3] | IL-17A transcription ([4]; 10 μM, vs vehicle control) | IL-22 transcription ([5]; 10 μM, vs vehicle control) | fold induction at 10 µM [1] | other results
1 | O=C(c1ccc(O)cc1)c1ccc(O)cc1O [2,4,4’-trihydroxybenzophenone] | agonistic activity | – | – | – | – | – | estrogenic activity ([2]; ref Suzuki et al., 2005): weak estrogenic activity
2 | O=C(c1ccc(O)cc1)c1ccc(O)cc1 [4,4’-dihydroxybenzophenone] | agonistic activity | – | – | – | – | – | –
3 | Cc1ccc(Sc2ccc(C(=O)c3ccccc3)cc2)cc1 [4-(4-methylphenylthio)benzophenone] | agonistic activity | – | – | – | – | – | –
4 | Cc1ccc(OC(=O)c2ccccc2)cc1 [4-Methylphenylbenzoate] | significant agonistic activity | 6 ± 9% | failed to do so | did not significantly enhance | did not significantly enhance | – | –
5 | COc1ccc(C(=O)c2ccc(OC)cc2O)c(O)c1 [Benzophenone-6, benzophenone-6] | agonistic activity | -1 ± 5% | – | – | – | > 1.5 | –
6 | COc1ccc(C(=O)c2ccc(C)cc2)c(O)c1 [Benzophenone-10, benzophenone-10] | agonistic activity | 15 ± 5% | significant increase | elevated expression | tended to increase | – | RORγ-dependent transactivation compared to the DMSO vehicle control ([1]; first screening, 10 μM): more than 1.5 fold; activation at 2.5 µM [1]: 63 ± 4%
7 | O=C(OCc1ccccc1)c1ccccc1 [Benzylbenzoate] | significant agonistic activity | 16 ± 12% | restore the suppressed RORγ activity in a concentration-dependent manner | did not significantly enhance | did not significantly enhance | – | estrogenic activity [2, 9]: Estrogenic activity
8 | O=C(OCc1ccccc1)c1ccc(O)cc1 [Benzylparaben, benzylparaben] | – | 13 ± 4% | significant increase | a trend was detected | tended to increase | > 1.5 | activation at 2.5 µM [1]: 45 ± 2%
9 | O=C(OCc1ccccc1)c1ccccc1O [Benzylsalicylate] | significant agonistic activity | 18 ± 3% | restore the suppressed RORγ activity in a concentration-dependent manner | did not significantly enhance | did not significantly enhance | – | estrogenic activity [2, 9]: Estrogenic activity
10 | CCCCOC(=O)c1ccc(O)cc1 [Butylparaben, butylparaben] | – | 5 ± 4% | – | – | – | > 1.5 | –
11 | CCc1ccc(N(CC(C)C)S(=O)(=O)c2ccc(OCC3CCOCC3)c(CO)c2)cc1 [GSK2981278, reference compound] | – | – | – | – | – | – | IL-17A transcription ([4]; 1 μM): efficient modulation; IL-22 transcription ([5]; 1 μM): efficient modulation
12 | CCCCCCCOC(=O)c1ccc(O)cc1 [Heptylparaben, heptylparaben] | – | 5 ± 5% | – | – | – | > 1.5 | –
13 | CCCCCCOC(=O)c1ccc(O)cc1 [Hexylparaben, hexylparaben] | – | – | significant increase | elevated expression | significantly increased transcription | > 1.5 | activation at 2.5 µM [1]: 83 ± 8%; solubility [6]: reduced solubility
14 | O=C(Oc1ccccc1)c1ccc(O)cc1 [Phenylparaben, phenylparaben] | – | 5 ± 2% | – | – | – | > 1.5 | –
15 | O=C(Nc1ccc(C(O)(C(F)(F)F)C(F)(F)F)cc1)c1ccccc1Cl [SR0987, reference compound] | – | – | – | efficient modulation | significantly increased transcription | – | –
16 | COc1ccc(C(=O)CC(=O)c2ccc(C(C)(C)C)cc2)cc1 [avobenzone] | – | – | – | – | – | – | skin penetration ([7]; ref Simeoni et al., 2004, Weigmann et al., 2001): limited skin penetration
17 | O=C(c1ccccc1)c1ccc(O)cc1O [benzophenone-1] | – | – | – | – | – | – | RORγ agonistic effect (in words, discussion) ([1]; micromolar concentrations): only weak RORγ agonistic effect
18 | O=C(c1ccc(O)cc1O)c1ccc(O)cc1O [benzophenone-2] | agonistic activity | – | – | – | – | – | –
19 | COc1ccc(C(=O)c2ccccc2)c(O)c1 [benzophenone-3] | agonistic activity | – | – | – | – | – | skin penetration ([7]; human skin, ref Benson et al., 2005, Fernandez et al., 2002): penetrate the human skin efficiently; concentration in breast milk [8]: 779.9 ng/g milk; concentration in serum [8]: 304 ng/mL; concentration in urine [8]: 300 ng/mL
20 | O=c1c(-c2ccc(O)cc2)coc2cc(O)cc(O)c12 [genistein, reference compound] | – | – | – | efficient modulation | significantly increased transcription | – | –
